Assay results from patent publication US7465469B2, “Microbiocidal formulation comprising essentials oils or their derivatives” (State of Israel, Ministry of Agriculture & Rural …, priority 2001, dated 2008).

Tests used:
Penicillium digitatum [1] = experiment: Decay of Penicillium-inoculated grapefruit after 2-minute dip; type: in vivo, Penicillium digitatum on grapefruit; settings: 25% Ethanol dip; three weeks after inoculation
Text: Unblemished grapefruit were harvested from the orchard and on the same day sorted again in the laboratory to eliminate injured fruit. The grapefruit were washed with tap water and air-dried. Each fruit was then inoculated by piercing its flavedo tissue 1.5 mm deep with a tool incorporating three needles at three different sites. Prior to each piercing, the tool was immersed in a spore suspension of Penicillium digitatum (10^6 spores/ml).

kumquat fruit = experiment: Decay of uninoculated kumquat fruit after storage and shelf life simulation; type: in vivo; settings: 11 days at 10° C. and shelf life at 20° C. for 6 days; limonene 5000 μL L^−1 exposed to sunlight for 3 hours in 25% ethanol + 5000 μL L^−1 TWEEN 20
Description: Exposure to sunlight or irradiation of the dichloromethane or hexane extract of lemon flavedo should be conducted for 3 to 6 hours. The efficiency of the extract hydroperoxide formulation as a biocidal composition grows with longer periods of exposure of the fruit to the hydroperoxide solution. […] The effect of exposure of limonene to 3 hours of sunlight and its efficiency as preventing decay compared to no treatment (dipping in water) or treatment with an ethanol solution (25%) are summarized in Table 4 in a commercial like experiment with uninoculated fruit.

[2] = system: non-inoculated Washington oranges; experiment: Decay percentage of non-inoculated Washington oranges during storage; type: in vivo, Washington navel oranges
Description: Non-inoculated Washington navel oranges were divided into […] groups which were treated as follows: (a) no treatment; (b) dipped in 50% Ethanol; (c) dipped in 0.2% Citral in 0.02% L-77 Emulsifier (aqueous emulsion); (d) dipped in 0.2% Citral in 50% Ethanol; and (e) dipped in a 0.2% aqueous Imazalil solution.
Oranges were then stored for four months at 15° C. in 50-75% relative humidity and the percentage of rotten fruit in each group was measured at different time periods after storage.

Penicillium digitatum [3] = experiment: Decay of lemons inoculated with Penicillium 10^4 spores/ml and dipped; type: in vivo, Penicillium digitatum on lemons; settings: inoculated lemons dipped a day after inoculation, kept 6 days at 20° C.
Description: Lemon fruit flavedo (exocarp) was taken and extracted overnight in dichloromethane, then exposed to sunlight for about 18 hours until the color of the dichloromethane extract turned brown. The flavedo was blended and filtered through a layer of Whatman paper. The extracted solution was evaporated to remove the dichloromethane and the dense liquor was further separated by chromatography with a silica 60 column using dichloromethane as a carrier. Two fractions of dichloromethane, one green and the other colorless, were obtained after chromatography. The crude active extract was isolated by evaporation of the green dichloromethane fraction. […] Effect of the compounds on pathogen development on the fruit was checked daily during storage.
The antifungal activity of the products prepared in the two different routes was checked in the same method. […] Decay was evaluated at specific intervals during a period of 26 days.
Lemons inoculated with Penicillium (10^4 spores/ml) were dipped in an aqueous solution comprising citral, a detergent (Tween 20), other essential oil components as well as a dichloromethane crude extract of lemon flavedo exposed to sunlight. Decay was evaluated at specific intervals during a period of 20 days.
Pure limonene was exposed to sunlight for three hours. […]

SMILES: CCO [Ethanol 25%, Ethanol]
- fruit rotten (Penicillium digitatum [1]): more than 50%
- Decay of kumquat fruit, End of storage (kumquat fruit): 7.9 ab
- % of rotten fruit ([2]; 0.5 months of storage at 15° C.): 0%
- % of rotten fruit ([2]; 1 month of storage at 15° C.): 4%
- % of rotten fruit ([2]; 2 months of storage at 15° C.): 14%
- % of rotten fruit ([2]; 3 months of storage at 15° C.): 20%
- % of rotten fruit ([2]; 4 months of storage at 15° C.): 23%
- % Decay (Penicillium digitatum [3]): 30%
